Experimental findings from publication PMC4503694, “The Human Autoantibody Response to Apolipoprotein A-I Is Focused on the C-Terminal Helix: A New Rationale for Diagnosis and Treatment of Cardiovascular Disease?” (PLoS ONE, 2015) are described below.

This test has as its system anti-ApoA-I autoantibodies in pooled patient plasma. As to the kind of experiment: Capture ELISA: immunoreactivity of pooled anti-ApoA-I-positive patient plasma to coated peptides. The format is binding, human. As to conditions: pooled plasma of anti-ApoA-I-positive patients; peptide as coating antigen; mean ± SD, n = 3 (Fig 1a). The protocol: Anti-ApoA-I IgG autoantibodies in plasma were measured as described previously. Briefly, Maxisorp plates (Nunc) were coated with purified and delipidated human ApoA-I, diluted in carbonate buffer pH 9.7 (20 μg/ml; 50 μl/well), for 1 h at 37°C. The same procedure was used for the engineered peptides. After three washes with PBS/ 2% (w/v) BSA (100 μl/well), all wells were blocked for 1 h with PBS/ 2% (w/v) BSA at 37°C. Samples were diluted 1:50 in PBS/ 2% (w/v) BSA and incubated for 60 min at 37°C. Samples at the same dilution were also added to a non-coated well to assess individual non-specific binding. After six further washes, 50 μl/well of alkaline-phosphatase conjugated anti-(human IgG) (Sigma-Aldrich), diluted 1:1000 in PBS/ 2% (w/v) BSA, was incubated for 1 h at 37°C. After six more washes (150 μl/well) with PBS/ 2% (w/v) BSA, the phosphatase substrate p-nitrophenyl phosphate (50μl/well; 1mg/ml; Sigma—Aldrich) dissolved in 4.8% (w/v) diethanolamine (pH 9.8) was added. Each sample was tested in duplicate and A 405nm was determined after 20 min of incubation at 37°C (VERSAMax; MolecularDevices). The corresponding non-specific binding was subtracted from the mean absorbance for each sample. As in previous studies, positive immunoreactivity of human samples to ApoA-I was prospectively defined by an index >37%. This value was also used to define positive immunoreactivity to mimetic peptides, as defined upon receiver operating characteristic (ROC) curve analyses, and shown to provide an identical prevalence of positive immunoreactivity levels 11% […] to native ApoA-1 and 11% (14/132) to F3L1 peptide (data not shown). Repeatability and reproducibility were determined at two levels. At a high level (A 405nm = 1.2, i.e. twice the cut-off value), the intra- and inter-assay coefficients of variation were 10% (n = 10) and 17% (n = 10) respectively. At the cut-off level, the intra- and inter-assay coefficients of variation were 16% (n = 10) and 12% (n = 8) respectively.
In order to characterize the anti-ApoA-I autoantibody response, we chemically synthesized a panel of peptides corresponding to the different alpha-helical regions in the protein (Table 1). Each of the two longest helical regions, C and D, were synthesized as two separate peptides (C1, C2, D1, D2) whose sequences are located on either side of centrally located proline residues (Pro^121 for Region C, Pro^165 for Region D (Table 1)). The synthetic peptides were then used as coating antigens in a capture ELISA experiment to compare their immunoreactivity against pooled plasma from a subset of patients from our acute chest pain cohort that had previously shown to be positive for anti-ApoA-I autoantibodies (Fig 1a).
Fig 1 The anti-ApoA-I autoantibody response is strongly biased towards the C-terminal alpha-helical region. ELISA experiments were carried out using a set of ApoA-I-derived peptides (Table 1). a. Capture ELISA assay to determine the immunoreactivity of plasma pooled from patients known to be positive for anti-ApoA-I autoantibodies against the set of peptides. Specific ELISA signals were calculated as [signal in well]-[mean background signal (uncoated well)]. Results are expressed as mean ± SD (n = 3) b and c. Competition ELISA to determine the capacity of the set of peptides to block binding of anti-ApoA-I antibodies from either pooled patient plasma (b) or goat polyclonal IgG (c) to immobilized ApoA-I. Plasma or antibody was preincubated (2 h, room temperature) with peptides at the indicated concentrations prior to addition to assay wells. Percent maximal ELISA signals were calculated as 100 × ([signal in well]-[mean background signal (uncoated well)])/([mean maximal signal (no peptide)]-[mean background signal]). Results are expressed as mean ± SD (n = 3).
Background: In an ELISA, binding on a coated surface is turned into a signal by an enzyme label.
For “A: ApoA-I-derived peptide, residues 10–39 (RVKDLATVYVDVLKDSGRDYVSQFEGSALG; UniProt P02647 34-63, looked up, fragment)”, the “plasma immunoreactivity (specific ELISA signal) to coated peptide” value is reported as “low signals”.
With “B: ApoA-I-derived peptide, residues 50–84 (WDSVTSTFSKLREQLGPVTQEFWDNLEKETEGLRQ; UniProt P02647 74-108, looked up, fragment)” the entry was “intermediate signals”; with “C1: ApoA-I-derived peptide, residues 97–120 (VQPYLDDFQKKWQEEMELYRQKVE; UniProt P02647 121-144, looked up, fragment) [Peptide C1]”, “low signals”.
With “C2: ApoA-I-derived peptide, residues 122–142 (LRAELQEGARQKLHELQEKLS; UniProt P02647 146-166, looked up, fragment) [Peptide C2]” the entry was “intermediate signals”; with “E: ApoA-I-derived peptide, residues 190–213 (AEYHAKATEHLSTLSEKAKPALED; UniProt P02647 214-237, looked up, fragment)”, “low signals”; with “LGEEMRDRARAHVDALRTHLAPYSDEL [Peptide D1, ApoA-I-derived peptide, residues 143–164]”, “low signals”.
As for “YSDELRQRLAARLEALKENGGA [Peptide D2, ApoA-I-derived peptide, residues 166–187]”, the entry is “low signals”.
